The record followed here is PMC11204762, “Purification and Structural Analyses of Sulfated Polysaccharides from Low-Value Sea Cucumber Stichopus naso and Anticoagulant Activities of Its Oligosaccharides” (Marine Drugs, 2024).

Several values for one entry are separate records, joined by “and”; a condition that tells them apart may be missing. Equal entries are not always repeated.

Test [1] deals with T1, intrinsic factor Xase complex (iXase, VIIIa-IXa-PL-Ca2+ complex) (Homo sapiens, UniProt P00740).
T1 construct: intrinsic factor Xase complexes (iXase, VIIIa-IXa-PL-Ca^2+ complex); purchased BIOPHEN FVIII:C (assay kit)
T1 sequence (P00740 47-191 limits assumed): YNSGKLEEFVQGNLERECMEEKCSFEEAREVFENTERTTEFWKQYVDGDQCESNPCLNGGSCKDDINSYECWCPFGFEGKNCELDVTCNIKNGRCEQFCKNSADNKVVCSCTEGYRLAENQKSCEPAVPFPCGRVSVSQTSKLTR
T1 sequence (P00740 227-461 limits assumed): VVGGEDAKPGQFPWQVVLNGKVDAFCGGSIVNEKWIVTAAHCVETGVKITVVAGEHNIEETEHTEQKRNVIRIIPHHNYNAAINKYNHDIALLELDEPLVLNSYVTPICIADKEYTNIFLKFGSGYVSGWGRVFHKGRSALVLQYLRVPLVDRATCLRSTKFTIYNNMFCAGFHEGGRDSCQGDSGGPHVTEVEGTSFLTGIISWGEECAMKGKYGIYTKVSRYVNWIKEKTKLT
Put plainly: Inhibition of iXase: chromogenic substrate assay, BIOPHEN FVIII:C kit and recombinant human factor VIII. Type of test: biochemical. As to conditions: IC50 ± SE (n = 2). As for the experimental part:
Inhibition of iXase was assessed using the chromogenic substrate assay and the FVIII assay kit BIOPHEN FVIII:C: containing R1 (FX), R2 (Activation Reagent), and R3 (SXa-11) and recombinant human factor VIII (FVIII). A total of 30 μL of each sample was added to the 96-well plate, followed by 30 μL of R2 and 30 μL of FVIII solution (2 IU/mL), and the place was placed in the microplate reader. The plates were mixed and incubated at 37 °C for 2 min. Then, 30 μL of R1 was added to mix and incubated at 37 °C for 1 min, and finally, 30 μL of R3 was added. The absorbance value at 405 nm (OD405nm) was recorded via a microplate reader, and continuous reading was performed for 2min at 15 s intervals. The experiments were performed in duplicate. The average value of OD405nm was linearly fitted to time, and the slope (the rate of change in absorbance value ΔOD405nm/min) corresponded to the iXase activity.
(§1) Activities of natural HfFG (FG from H. fuscopunctata) and its oligosaccharides oHG-8, oHG-11, oHG-14, and oHG-17 were simultaneously detected for comparison.

Test [2] deals with intrinsic coagulation pathway (APTT of human plasma). Put plainly: Anticoagulant activity: APTT with a coagulometer, APTT reagent and standard human plasma. Type of test: biochemical. As to conditions: for 2APTT: concentration required to double the APTT of human plasma (EC2.0×): standard human plasma, EC2.0× ± SD (n = 2). As to the method:
The anticoagulant activities of natural SnFG and its oligosaccharides 3, 4, 5, and 6 were assessed using a coagulometer (TECO, MC-2000) using APTT reagents and standard human plasma, according to a previous method. Briefly, 5 μL of a series of concentrations of the samples was added to a standard preheated to 37 °C and another 45 μL of standard human plasma was added for co-incubation at 37 °C for 2 min, followed by the addition of 50 μL of APTT reagent for incubation for another 3 min. Subsequently, 50 μL of CaCl2 (0.02 M) was added and the timer was started.
as §1

Regarding “L-Fuc2S4S-α(1,3)-L-Δ^4,5HexA-α(1,3)-D-GalNAc4S6S-β(1,4)-[L-Fuc2S4S-α(1,3)]-D-GlcA-β(1,3)-D-GalNAc4S6S-β(1,4)-[L-Fuc2S4S-α(1,3)]-D-GlcA-ol [compound 3]”, in test [1], the “Anti-iXase: concentration required to inhibit 50% Xase activity (IC50)” value was 0.335 ± 0.02473 µg/mL. Moreover, in test [2] (EC2.0× 20.94 vs. 32.35 μg/mL), the “fold stronger than oHG-8 in APTT prolongation (EC2.0×)” value is “about 1.5 fold”. For the same substance, the “2APTT: concentration required to double the APTT of human plasma (EC2.0×)” value in test [2] was 20.94 µg/mL and 20.94 ± 0.27 µg/mL.

As for enoxaparin [LMWH, reference compound], in test [1], the “Anti-iXase: concentration required to inhibit 50% Xase activity (IC50)” value was found to be 0.08444 ± 0.00799 µg/mL. Moreover, the “2APTT: concentration required to double the APTT of human plasma (EC2.0×)” value in test [2] was 7.46 ± 0.02 µg/mL.
